Values after ≈ are worked out from the molar mass of the structure shown.
Assays:
[1] = tested on: E. coli J53 + NDM-1 transconjugant; assay: MIC, broth microdilution; assay type: cell-based, Escherichia coli; conditions: captopril where added at 8 mg/liter
Source text: (§1) The bacteria used were nonclonal international isolates whose mechanisms of carbapenem resistance have been defined genetically by sequencing. […] MBL genes were obtained by PCR using standard procedures and were inserted into a pK18 vector which was used to transform E. coli J53 ([34]). Transconjugants were obtained with MBL genes carried on native wild-type plasmids conjugated into J53 ([35]). Both transformants and transconjugants were confirmed by DNA sequencing and verified for MBL production by using MTS MBL strips (Liofilchem, Roseto, Italy). […] MICs were determined using the broth microdilution method according to CLSI guidelines. Strains were cultured and tested in cation-adjusted Mueller-Hinton agar and broth (Becton Dickinson).

[2] = tested on: E. coli J53 + NDM-1 clone; assay: MIC, broth microdilution; assay type: cell-based, Escherichia coli; conditions: captopril where added at 8 mg/liter
Source text: (§2) The bacteria used were nonclonal international isolates whose mechanisms of carbapenem resistance have been defined genetically by sequencing. E. coli ATCC 25922 was used as a negative control. MBL genes were obtained by PCR using standard procedures and were inserted into a pK18 vector which was used to transform E. coli J53 ([34]). Transconjugants were obtained with MBL genes carried on native wild-type plasmids conjugated into J53 ([35]). Both transformants and transconjugants were confirmed by DNA sequencing and verified for MBL production by using MTS MBL strips (Liofilchem, Roseto, Italy). Additionally, 5 Escherichia coli (with NDM-1), 10 Klebsiella pneumoniae (5 with NDM-1, 3 with VIM-4, and 2 with IMP-4), 1 Serratia marcescens (with IMP-4), and 2 Pseudomonas aeruginosa (with VIM-2 and AIM-1) isolates and E. coli ATCC 25922 were used in the test panel. MICs were determined using the broth microdilution method according to CLSI guidelines. Strains were cultured and tested in cation-adjusted Mueller-Hinton agar and broth (Becton Dickinson).

[3] = tested on: E. coli J53 + IMP-1 clone; assay: MIC, broth microdilution; assay type: cell-based, Escherichia coli; conditions: captopril where added at 8 mg/liter
Source text: as §2

[4] = tested on: E. coli J53 + VIM-2 transconjugant; assay: MIC, broth microdilution; assay type: cell-based, Escherichia coli; conditions: captopril where added at 8 mg/liter
Source text: as §2

[5] = tested on: E. coli J53 + VIM-2 clone; assay: MIC, broth microdilution; assay type: cell-based, Escherichia coli; conditions: captopril where added at 8 mg/liter
Source text: as §2

[6] = target: VIM-4 (Pseudomonas aeruginosa, UniProt Q8KRJ3); assay: MBL inhibition assay, VIM-4; assay type: biochemical
Method: (§3) Recombinant forms of NDM-1, VIM-2, VIM-4, SPM-1, IMP-1, and BcII MBLs were produced in Escherichia coli as described previously ([27], [28]).
(§4) Kinetic and inhibition assays with the bacterial MBLs, human angiotensin-converting enzyme 2 (hACE-2), and hydroxyacylglutathione hydrolase, human glyoxylase II (hHAGH), were performed as described previously ([7], [27]).

[7] = target: human angiotensin-converting enzyme 2 (hACE-2) (Homo sapiens, UniProt Q9BYF1); assay: Inhibition assay, hACE-2; assay type: biochemical; conditions: at 100 μM, standard assay conditions
human angiotensin-converting enzyme 2 (hACE-2), sequence (Q9BYF1 18-805): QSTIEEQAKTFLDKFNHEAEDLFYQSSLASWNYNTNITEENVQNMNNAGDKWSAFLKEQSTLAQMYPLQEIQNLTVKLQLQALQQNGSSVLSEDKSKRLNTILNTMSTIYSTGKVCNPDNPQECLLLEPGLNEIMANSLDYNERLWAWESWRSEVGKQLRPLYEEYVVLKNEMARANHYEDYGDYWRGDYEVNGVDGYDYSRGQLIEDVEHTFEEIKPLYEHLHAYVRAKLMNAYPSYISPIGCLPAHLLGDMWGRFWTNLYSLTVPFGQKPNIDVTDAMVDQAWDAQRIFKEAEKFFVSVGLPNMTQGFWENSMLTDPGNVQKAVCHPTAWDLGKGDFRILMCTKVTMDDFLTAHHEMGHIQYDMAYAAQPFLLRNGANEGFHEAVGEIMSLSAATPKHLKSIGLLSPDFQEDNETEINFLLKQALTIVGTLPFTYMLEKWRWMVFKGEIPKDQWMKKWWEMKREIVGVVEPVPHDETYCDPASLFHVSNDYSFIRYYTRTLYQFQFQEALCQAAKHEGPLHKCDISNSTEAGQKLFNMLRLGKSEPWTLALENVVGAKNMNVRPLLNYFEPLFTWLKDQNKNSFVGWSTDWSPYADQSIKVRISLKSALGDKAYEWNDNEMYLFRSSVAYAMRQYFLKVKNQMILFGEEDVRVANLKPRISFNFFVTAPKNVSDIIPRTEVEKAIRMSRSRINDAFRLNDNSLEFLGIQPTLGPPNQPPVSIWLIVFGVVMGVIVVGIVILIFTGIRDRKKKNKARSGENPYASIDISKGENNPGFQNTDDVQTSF
Method: as §4

[8] = target: T1, DCLRE1A (Homo sapiens, UniProt Q6PJP8); assay: Nuclease assay, DCLRE1A; conditions: at 100 μM, standard assay conditions
T1 sequence (Q6PJP8 608-1040 limits assumed): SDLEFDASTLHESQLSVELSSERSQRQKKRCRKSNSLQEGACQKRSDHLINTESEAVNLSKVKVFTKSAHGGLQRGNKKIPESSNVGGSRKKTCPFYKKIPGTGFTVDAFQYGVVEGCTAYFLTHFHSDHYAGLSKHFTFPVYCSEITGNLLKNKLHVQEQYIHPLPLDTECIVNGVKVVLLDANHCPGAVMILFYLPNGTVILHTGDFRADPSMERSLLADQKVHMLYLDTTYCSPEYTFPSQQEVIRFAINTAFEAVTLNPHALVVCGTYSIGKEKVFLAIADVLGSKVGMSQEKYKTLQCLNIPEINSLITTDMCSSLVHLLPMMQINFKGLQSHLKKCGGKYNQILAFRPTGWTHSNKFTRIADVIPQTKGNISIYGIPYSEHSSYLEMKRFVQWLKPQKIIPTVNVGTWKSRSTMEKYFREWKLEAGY
Method: (§5) Nuclease assays with DCLRE1A and DCLRE1B (DNA cross-link repair enzymes 1A and 1B) ([33]) were performed according to a previously described method ([33]), employing a 21-nucleotide DNA oligonucleotide with a fluorescein label at its 3′ end. In brief, exonuclease activity was measured using ΔN-DCLRE1A (3.5 ng; 8 nM) or ΔC-DCLRE1B (1.5 ng; 4 nM) mixed with 1 pmol (1 μM) of 3′-fluorescein-labeled DNA substrate in 10 μl of 20 mM HEPES, pH 7.9, 50 mM KCl, 10 mM MgCl2, 0.5 mM dithiothreitol (DTT), 0.05% Triton-X, 0.1 mg/ml bovine serum albumin (BSA), and 5% glycerol.
(§6) [SNM1A] = [SNM1B] = 0.8 nM; [21nt fluor-ssDNA] = 1 µM, assay time = 20 mins

[9] = target: T2, DCLRE1B (Homo sapiens, UniProt Q9H816); assay: Nuclease assay, DCLRE1B; conditions: at 100 μM, standard assay conditions
T2 sequence (Q9H816 1-335 limits assumed): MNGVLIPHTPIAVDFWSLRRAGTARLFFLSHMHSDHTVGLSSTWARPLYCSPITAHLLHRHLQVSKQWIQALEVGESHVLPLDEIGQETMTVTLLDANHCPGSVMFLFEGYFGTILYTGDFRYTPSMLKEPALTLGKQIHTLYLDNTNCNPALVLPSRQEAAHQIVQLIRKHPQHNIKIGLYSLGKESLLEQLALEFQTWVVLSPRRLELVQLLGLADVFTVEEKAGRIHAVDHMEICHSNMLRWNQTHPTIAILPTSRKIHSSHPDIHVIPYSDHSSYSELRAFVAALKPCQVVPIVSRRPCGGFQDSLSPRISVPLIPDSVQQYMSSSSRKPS
Method: as §5, §6

[10] = target: hydroxyacylglutathione hydrolase, human glyoxylase II (hHAGH) (Homo sapiens, UniProt Q16775); assay: Inhibition assay, hHAGH; assay type: biochemical; conditions: at 100 μM, standard assay conditions
Method: as §4

[11] = target: SPM-1 (Pseudomonas aeruginosa, UniProt Q8G9Q0); assay: MBL inhibition assay, SPM-1
SPM-1, sequence (Q8G9Q0 entry or part of it): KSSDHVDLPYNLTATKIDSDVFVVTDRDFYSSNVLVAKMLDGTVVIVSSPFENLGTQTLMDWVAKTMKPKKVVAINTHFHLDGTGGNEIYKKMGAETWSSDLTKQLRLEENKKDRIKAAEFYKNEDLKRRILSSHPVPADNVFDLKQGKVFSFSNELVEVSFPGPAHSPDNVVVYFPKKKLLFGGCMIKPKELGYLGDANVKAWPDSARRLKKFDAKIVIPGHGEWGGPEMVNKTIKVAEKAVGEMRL
Method: as §3, §4

[12] = target: BcII (Bacillus cereus, UniProt P04190); assay: MBL inhibition assay, BcII
BcII, sequence (P04190 31-257): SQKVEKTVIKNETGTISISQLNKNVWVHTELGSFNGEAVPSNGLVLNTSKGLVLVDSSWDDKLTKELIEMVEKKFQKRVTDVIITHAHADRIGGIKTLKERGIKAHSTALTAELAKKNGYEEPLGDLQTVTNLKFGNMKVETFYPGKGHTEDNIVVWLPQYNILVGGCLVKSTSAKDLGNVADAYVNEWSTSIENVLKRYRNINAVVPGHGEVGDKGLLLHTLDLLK
Method: as §3, §4

[13] = target: T3, NDM-1 (Klebsiella pneumoniae, UniProt C7C422); assay: biochemical
T3 construct: made in house; host or cells: Escherichia coli
T3 sequence (C7C422 29-270 limits assumed): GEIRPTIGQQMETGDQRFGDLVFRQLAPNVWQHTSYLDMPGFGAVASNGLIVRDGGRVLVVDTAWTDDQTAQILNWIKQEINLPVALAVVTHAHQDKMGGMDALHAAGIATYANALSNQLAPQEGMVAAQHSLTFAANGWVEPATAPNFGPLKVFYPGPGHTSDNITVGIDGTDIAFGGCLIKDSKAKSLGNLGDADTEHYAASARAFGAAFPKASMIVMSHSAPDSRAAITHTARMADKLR
Method: as §3, §4

[14] = target: T4, VIM-2 (Escherichia coli, UniProt Q5U7L7); assay: biochemical; conditions: means ± standard deviations, three or more experiments
T4 construct: made in house; host or cells: Escherichia coli
Method: as §3, §4

[15] = target: IMP-1 (Serratia marcescens, UniProt P52699); assay: MBL inhibition assay, IMP-1
IMP-1, sequence (P52699 19-246 limits assumed): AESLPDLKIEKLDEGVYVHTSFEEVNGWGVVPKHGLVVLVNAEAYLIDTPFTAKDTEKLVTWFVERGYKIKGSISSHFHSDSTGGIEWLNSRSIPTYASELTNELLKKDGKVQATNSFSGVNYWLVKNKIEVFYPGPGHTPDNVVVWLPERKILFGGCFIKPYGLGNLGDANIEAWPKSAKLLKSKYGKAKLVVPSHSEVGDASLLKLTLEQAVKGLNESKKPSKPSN
Method: as §3, §4

[16] = tested on: E. coli 25922; assay: MIC, broth microdilution; assay type: cell-based, Escherichia coli; conditions: E. coli 25922 (negative control); captopril where added at 8 mg/liter
Source text: as §1

[17] = tested on: E. coli IR24 (NDM-1); assay: MIC, broth microdilution; assay type: cell-based, Escherichia coli; conditions: captopril where added at 8 mg/liter
Source text: as §2

[18] = tested on: E. coli IR10 (NDM-1); assay: MIC, broth microdilution; assay type: cell-based, Escherichia coli; conditions: captopril where added at 8 mg/liter
Source text: as §2

[19] = tested on: E. coli IR15 (NDM-1); assay: MIC, broth microdilution; assay type: cell-based, Escherichia coli; conditions: captopril where added at 8 mg/liter
Source text: as §2

[20] = tested on: S. marcescens B13 (IMP-4); assay: MIC, broth microdilution; assay type: cell-based, Serratia marcescens; conditions: captopril where added at 8 mg/liter
Source text: as §2

[21] = tested on: K. pneumoniae IR8 (NDM-1); assay: MIC, broth microdilution; assay type: cell-based, Klebsiella pneumoniae; conditions: captopril where added at 8 mg/liter
Source text: as §2

[22] = tested on: K. pneumoniae B12 (IMP-4); assay: MIC, broth microdilution; assay type: cell-based, Klebsiella pneumoniae; conditions: captopril where added at 8 mg/liter
Source text: as §2

[23] = tested on: K. pneumoniae A33 (VIM-4); assay: MIC, broth microdilution; assay type: cell-based, Klebsiella pneumoniae; conditions: captopril where added at 8 mg/liter
Source text: as §2

[24] = tested on: K. pneumoniae A34 (VIM-4); assay: MIC, broth microdilution; assay type: cell-based, Klebsiella pneumoniae; conditions: captopril where added at 8 mg/liter
Source text: as §2

[25] = tested on: K. pneumoniae HR8 (NDM-1); assay: MIC, broth microdilution; assay type: cell-based, Klebsiella pneumoniae; conditions: captopril where added at 8 mg/liter
Source text: as §2

[26] = tested on: K. pneumoniae A35 (VIM-4); assay: MIC, broth microdilution; assay type: cell-based, Klebsiella pneumoniae; conditions: captopril where added at 8 mg/liter
Source text: as §2

[27] = tested on: K. pneumoniae N16 (NDM-1); assay: MIC, broth microdilution; assay type: cell-based, Klebsiella pneumoniae; conditions: captopril where added at 8 mg/liter
Source text: as §2

[28] = tested on: K. pneumoniae B19 (IMP-4); assay: MIC, broth microdilution; assay type: cell-based, Klebsiella pneumoniae; conditions: captopril where added at 8 mg/liter
Source text: as §2

[29] = tested on: K. pneumoniae IR19 (NDM-1); assay: MIC, broth microdilution; assay type: cell-based, Klebsiella pneumoniae; conditions: captopril where added at 8 mg/liter
Source text: as §2

[30] = target: CphA; conditions: B2 MBL ref 18; cited from earlier work
[31] = target: FEZ-1; set-up: method as in PMID 12507470; conditions: B3 MBL ref 23; cited from earlier work

Row | SMILES | MIC [2] | MIC [3] | MIC [4] | MIC [5] | IC50 [6] | inhibition of hACE-2 [7] | inhibition of DCLRE1A [8] | inhibition of DCLRE1B [9] | inhibition of hHAGH [10] | also measured
1 | CC(C)(O/N=C(\C(=O)N[C@@H]1C(=O)N2C(C(=O)[O-])=C(C[n+]3ccccc3)CS[C@H]12)c1csc(N)n1)C(=O)O [CFZ, ceftazidime] | 512 µg/mL (≈ 937 µM) | 128 µg/mL (≈ 234 µM) | 32 µg/mL (≈ 58.5 µM) | 32 µg/mL (≈ 58.5 µM) |  |  |  |  |  | MIC [1]: 512 µg/mL (≈ 937 µM)
2 | C[C@H](CS)C(=O)N1CCC[C@H]1C(=O)O [L-Captopril, (2S)-1-[(2S)-2-Methyl-3-sulfanylpropanoyl] pyrrolidine-2-carboxylic acid] |  |  |  |  | 3900 ± 500 nM | no inhibition | no inhibition | no inhibition | no inhibition | 
3 | O=C(O)C1CCCN1C(=O)c1ccccc1S [D-MBP, 1-(2-mercaptobenzoyl)pyrrolidine-2-carboxylic acid] |  |  |  |  |  | no inhibition | no inhibition | no inhibition | no inhibition | IC50 [11]: > 500 µM; IC50 [12]: > 500 µM; IC50 [13]: > 500 µM; IC50 [14]: > 500 µM; IC50 [15]: > 500 µM
4 | C[C@@H](O)[C@H]1C(=O)N2C(C(=O)O)=C(S[C@@H]3CN[C@H](C(=O)N(C)C)C3)[C@H](C)[C@H]12 [MEM, meropenem] | 64 µg/mL (≈ 167 µM) | 1 µg/mL (≈ 2.61 µM) | 2 µg/mL (≈ 5.22 µM) | 8 µg/mL (≈ 20.9 µM) |  |  |  |  |  | MIC [16]: < 0.125 µg/mL; MIC [17]: 512 µg/mL (≈ 1340 µM); MIC [18]: 64 µg/mL (≈ 167 µM); MIC [19]: 8 µg/mL (≈ 20.9 µM); MIC [20]: 4 µg/mL (≈ 10.4 µM); MIC [21]: 16 µg/mL (≈ 41.7 µM); MIC [22]: 8 µg/mL (≈ 20.9 µM); MIC [23]: 8 µg/mL (≈ 20.9 µM); MIC [24]: 8 µg/mL (≈ 20.9 µM); MIC [25]: 64 µg/mL (≈ 167 µM); MIC [26]: 16 µg/mL (≈ 41.7 µM); MIC [27]: 32 µg/mL (≈ 83.4 µM); MIC [28]: 32 µg/mL (≈ 83.4 µM); MIC [29]: 8 µg/mL (≈ 20.9 µM)
5 | C[C@@H](CS)C(=O)N1CCC[C@H]1C(=O)O [D-Captopril, (2S)-1-[(2R)-2-methyl-3-sulfanylpropanoyl] pyrrolidine-2-carboxylic acid] |  |  |  |  | 1700 ± 400 nM | no inhibition | no inhibition | no inhibition | no inhibition | Ki [30]: 72 µM; Ki [31]: 400 µM
